Assay results reported in patent US20120270929A1, “MODULATION OF TTC39 EXPRESSION TO INCREASE HDL” (ISIS Pharmaceuticals, Inc., priority 2009, published 2012).
Oligonucleotides are written 5' to 3', each unit as a sugar letter and its base; * is a phosphorothioate linkage, no mark a phosphodiester; rarer units and linkages stand in square brackets, end groups in braces. Plain capitals give the bases only. e = 2'-O-(2-methoxyethyl) (MOE); [5mC] = 5-methylcytosine; d = 2'-deoxy (DNA)

Assays:
[1] = test system: Low density lipoprotein receptor (Ldlr) mRNA; test: PCR microarray analysis of liver, LDLr-/- mice: Ldlr; assay type: in vivo, mouse; conditions: 50 mg/kg, 6 weeks
Experimental: (§1) Four groups of five male mice each were injected with a total of 1.5, 5, 15, or 50 mg/kg/week of ISIS 447118 for 6 weeks. A group of five mice was injected with a total of 50 mg/kg/week of control oligonucleotide ISIS 141923 ([…], designated herein as SEQ ID NO: 112, which has no known murine target) for 6 weeks. A control group of five mice was injected with phosphate buffered saline (PBS) twice a week for 6 weeks. Plasma samples were obtained before the start of treatment, at week 3 and at week 6. At the end of the treatment period, the mice were euthanized. Plasma and tissue samples were obtained for further analysis.
(§2) Liver samples from the mice groups were analyzed using a commercial kit for PCR microarray analysis (SA Biosciences Corp., MD), according to the manufacturer's instructions. Genes involved in lipoprotein and cholesterol metabolism were compared with the PBS control.

[2] = test system: Apolipoprotein A-IV (ApoA4) mRNA; test: PCR microarray analysis of liver, LDLr-/- mice: ApoA4; assay type: in vivo, mouse; conditions: 50 mg/kg, 6 weeks
Experimental: as §1, §2

[3] = test system: Oxysterol binding protein-like 5 (Osbpl5) mRNA; test: PCR microarray analysis of liver, LDLr-/- mice: Osbpl5; assay type: in vivo, mouse; conditions: 50 mg/kg, 6 weeks
Experimental: as §1, §2

[4] = Plasma cholesterol and triglycerides in LDLr-/- mice; assay type: in vivo, mouse; conditions: 50 mg/kg/week
Experimental: The LDLr knockout mice model is a model for familial hypercholesterolemia developed by Ishibashi et al (J Clin Invest 1993; 92: 883-893). On a normal chow diet, the mice have an average total cholesterol of 250 mg/dL due to increases in LDL and VLDL cholesterol. This model is therefore highly susceptible to atherosclerosis (Ishibashi et al Proc Natl Acad Sci USA 1994; 91: 4431-4435).
as §1
To investigate the effect of inhibition of TTC39B on triglycerides and cholesterol levels in the plasma, samples were collected on weeks 0, 3, and 6, and total plasma cholesterol, LDL cholesterol, HDL cholesterol, and triglycerides were analyzed on an Olympus AU400e Analyzer.

[5] = test system: Sterol O-acyltransferase 2 (Soat2) mRNA; test: PCR microarray analysis of liver, LDLr-/- mice: Soat2; assay type: in vivo, mouse; conditions: 50 mg/kg, 6 weeks
Experimental: as §1, §2

Stabilin 1 (Stab1) mRNA = test: PCR microarray analysis of liver, LDLr-/- mice: Stab1; assay type: in vivo, mouse; conditions: 50 mg/kg, 6 weeks
Experimental: as §1, §2

[6] = test system: Mevalonate (diphospho) decarboxylase (Mvd) mRNA; test: PCR microarray analysis of liver, LDLr-/- mice: Mvd; assay type: in vivo, mouse; conditions: 50 mg/kg, 6 weeks
Experimental: as §1, §2

[7] = test system: Farnesyl diphosphate synthetase (Fdps) mRNA; test: PCR microarray analysis of liver, LDLr-/- mice: Fdps; assay type: in vivo, mouse; conditions: 50 mg/kg, 6 weeks
Experimental: as §1, §2

[8] = test system: Insulin induced gene 1 (Insig1) mRNA; test: PCR microarray analysis of liver, LDLr-/- mice: Insig1; assay type: in vivo, mouse; conditions: 50 mg/kg, 6 weeks
Experimental: as §1, §2

[9] = test system: Proprotein convertase subtilisin/kexin type 9 (Pcsk9) mRNA; test: PCR microarray analysis of liver, LDLr-/- mice: Pcsk9; assay type: in vivo, mouse; conditions: 50 mg/kg, 6 weeks
Experimental: as §1, §2

murine TTC39A mRNA [10] = test: Dose-dependent antisense inhibition of murine TTC39A in b.END cells; assay type: cell-based, mouse; conditions: ~16 h; for IC50: cytofectin
Experimental: Cells were plated at a density of 3,500 cells per well and transfected using cytofectin reagent with 4.375 nM, 8.75 nM, 17.5 nM, 35 nM, 70 nM, and 140 nM concentrations of antisense oligonucleotide, as specified in Table 28. After a treatment period of approximately 16 hours, RNA was isolated from the cells and TTC39A mRNA levels were measured by quantitative real-time PCR. Murine primer probe set RTS3262 was used to measure mRNA levels. TTC39A mRNA levels were adjusted according to total RNA content, as measured by RIBOGREEN®. Results are presented as percent inhibition of TTC39A, relative to untreated control cells.

murine TTC39A mRNA [11] = test: Antisense inhibition of mouse TTC39A in b.END cells, single dose; assay type: cell-based; conditions: 70 nM, cytofectin, ~24 h, vs untreated control
Experimental: Antisense oligonucleotides were designed targeting a TTC39A nucleic acid and were tested for their effects on TTC39A mRNA in vitro. Cultured b.END cells at a density of 4,000 cells per well were transfected using cytofectin reagent with 70 nM antisense oligonucleotide. After a treatment period of approximately 24 hours, RNA was isolated from the cells and TTC39A mRNA levels were measured by quantitative real-time PCR. Mouse primer probe set RTS3262 (forward sequence TGTGCGTCATGCTGTTGCT, designated herein as SEQ ID NO: 113; reverse sequence […], designated herein as SEQ ID NO: 114; probe sequence […], designated herein as SEQ ID NO: 115). TTC39A mRNA levels were adjusted according to total RNA content, as measured by RIBOGREEN®. Results are presented as percent inhibition of TTC39A, relative to untreated control cells.
The chimeric antisense oligonucleotides targeting TTC39A were designed as 5-10-5 MOE gapmers. The gapmers are 20 nucleotides in length, wherein the central gap segment is comprised of ten 2′-deoxynucleotides and is flanked on both sides (in the 5′ and 3′ directions) by wings comprising five nucleotides each. Each nucleotide in the 5′ wing segment and each nucleotide in the 3′ wing segment has a 2′-MOE modification. The internucleoside linkages throughout each gapmer are phosphorothioate (P═S) linkages. All cytosine residues throughout each gapmer are 5-methylcytosines. “Mouse Target start site” indicates the 5′-most nucleotide to which the gapmer is targeted in a mouse nucleic acid sequence.

CCTTCCCTGAAGGTTCCTCC (chemistry not given here) [ISIS 141923, reference compound]
Ldlr fold increase/decrease relative to PBS group [1]: 1.36 fold | ApoA4 fold increase/decrease relative to PBS group [2]: 0.87 fold | Osbpl5 fold increase/decrease relative to PBS group [3]: 1.21 fold | HDL cholesterol % increase on week 6 (% change over baseline) [4]: 43% | HDL cholesterol levels ([4]; Week 0 (before treatment)): 76 mg/dL | LDL cholesterol levels ([4]; Week 0 (before treatment)): 100 mg/dL | total cholesterol levels ([4]; Week 0 (before treatment)): 206 mg/dL | triglyceride levels ([4]; Week 0 (before treatment)): 97 mg/dL | HDL cholesterol levels ([4]; Week 3): 78 mg/dL | LDL cholesterol levels ([4]; Week 3): 100 mg/dL | total cholesterol levels ([4]; Week 3): 204 mg/dL | triglyceride levels ([4]; Week 3): 116 mg/dL | HDL cholesterol levels ([4]; Week 6): 108 mg/dL | LDL cholesterol levels ([4]; Week 6): 112 mg/dL | total cholesterol levels ([4]; Week 6): 227 mg/dL | triglyceride levels ([4]; Week 6): 143 mg/dL | Soat2 fold increase/decrease relative to PBS group [5]: 0.95 fold | Stab1 fold increase/decrease relative to PBS group (Stabilin 1 (Stab1) mRNA): 1.12 fold | Mvd fold increase/decrease relative to PBS group [6]: 1.25 fold | Fdps fold increase/decrease relative to PBS group [7]: 1.21 fold | Insig1 fold increase/decrease relative to PBS group [8]: 1.13 fold | Pcsk9 fold increase/decrease relative to PBS group [9]: 1.09 fold

GCCTCAGAATCCTGGTGGGA (eG*e[5mC]*e[5mC]*eT*e[5mC]*dA*dG*dA*dA*dT*d[5mC]*d[5mC]*dT*dG*dG*eT*eG*eG*eG*eA; antisense) [ISIS 474437]
percent inhibition of TTC39A mRNA (murine TTC39A mRNA [10]; 4.375 nM): 5% | percent inhibition of TTC39A mRNA (murine TTC39A mRNA [10]; 8.75 nM): 6% | percent inhibition of TTC39A mRNA (murine TTC39A mRNA [10]; 17.5 nM): 26% | percent inhibition of TTC39A mRNA (murine TTC39A mRNA [10]; 35.0 nM): 36% | percent inhibition of TTC39A mRNA (murine TTC39A mRNA [10]; 70.0 nM): 62% | percent inhibition of TTC39A mRNA (murine TTC39A mRNA [10]; 140.0 nM): 82% | IC50 (murine TTC39A mRNA [10]): 49 nM | % inhibition of murine TTC39A mRNA (murine TTC39A mRNA [11]): 94%

TCCATGGAGTAGTTCTTGTA (eT*e[5mC]*e[5mC]*eA*eT*dG*dG*dA*dG*dT*dA*dG*dT*dT*d[5mC]*eT*eT*eG*eT*eA; antisense) [ISIS 474452]
percent inhibition of TTC39A mRNA (murine TTC39A mRNA [10]; 4.375 nM): 0% | percent inhibition of TTC39A mRNA (murine TTC39A mRNA [10]; 8.75 nM): 9% | percent inhibition of TTC39A mRNA (murine TTC39A mRNA [10]; 17.5 nM): 36% | percent inhibition of TTC39A mRNA (murine TTC39A mRNA [10]; 35.0 nM): 46% | percent inhibition of TTC39A mRNA (murine TTC39A mRNA [10]; 70.0 nM): 61% | percent inhibition of TTC39A mRNA (murine TTC39A mRNA [10]; 140.0 nM): 86% | IC50 (murine TTC39A mRNA [10]): 41 nM | % inhibition of murine TTC39A mRNA (murine TTC39A mRNA [11]): 92%

TCCTTGCTCAGCAGGTCGGC (eT*e[5mC]*e[5mC]*eT*eT*dG*d[5mC]*dT*d[5mC]*dA*dG*d[5mC]*dA*dG*dG*eT*e[5mC]*eG*eG*e[5mC]; antisense) [ISIS 474366]
percent inhibition of TTC39A mRNA (murine TTC39A mRNA [10]; 4.375 nM): 0% | percent inhibition of TTC39A mRNA (murine TTC39A mRNA [10]; 8.75 nM): 0% | percent inhibition of TTC39A mRNA (murine TTC39A mRNA [10]; 17.5 nM): 23% | percent inhibition of TTC39A mRNA (murine TTC39A mRNA [10]; 35.0 nM): 45% | percent inhibition of TTC39A mRNA (murine TTC39A mRNA [10]; 70.0 nM): 64% | percent inhibition of TTC39A mRNA (murine TTC39A mRNA [10]; 140.0 nM): 80% | IC50 (murine TTC39A mRNA [10]): 43 nM | % inhibition of murine TTC39A mRNA (murine TTC39A mRNA [11]): 93%

TCGGTGCCTCTGACACAGCG (eT*e[5mC]*eG*eG*eT*dG*d[5mC]*d[5mC]*dT*d[5mC]*dT*dG*dA*d[5mC]*dA*e[5mC]*eA*eG*e[5mC]*eG; antisense) [ISIS 474474]
percent inhibition of TTC39A mRNA (murine TTC39A mRNA [10]; 4.375 nM): 0% | percent inhibition of TTC39A mRNA (murine TTC39A mRNA [10]; 8.75 nM): 5% | percent inhibition of TTC39A mRNA (murine TTC39A mRNA [10]; 17.5 nM): 27% | percent inhibition of TTC39A mRNA (murine TTC39A mRNA [10]; 35.0 nM): 56% | percent inhibition of TTC39A mRNA (murine TTC39A mRNA [10]; 70.0 nM): 72% | percent inhibition of TTC39A mRNA (murine TTC39A mRNA [10]; 140.0 nM): 87% | IC50 (murine TTC39A mRNA [10]): 33 nM | % inhibition of murine TTC39A mRNA (murine TTC39A mRNA [11]): 97%

TGCACTGGTCCAGGGCCTCA (eT*eG*e[5mC]*eA*e[5mC]*dT*dG*dG*dT*d[5mC]*d[5mC]*dA*dG*dG*dG*e[5mC]*e[5mC]*eT*e[5mC]*eA; antisense) [ISIS 474351]
percent inhibition of TTC39A mRNA (murine TTC39A mRNA [10]; 4.375 nM): 6% | percent inhibition of TTC39A mRNA (murine TTC39A mRNA [10]; 8.75 nM): 0% | percent inhibition of TTC39A mRNA (murine TTC39A mRNA [10]; 17.5 nM): 8% | percent inhibition of TTC39A mRNA (murine TTC39A mRNA [10]; 35.0 nM): 48% | percent inhibition of TTC39A mRNA (murine TTC39A mRNA [10]; 70.0 nM): 66% | percent inhibition of TTC39A mRNA (murine TTC39A mRNA [10]; 140.0 nM): 84% | IC50 (murine TTC39A mRNA [10]): 44 nM | % inhibition of murine TTC39A mRNA (murine TTC39A mRNA [11]): 94%
